This is an account of results in patent US12433877B2, “Sustained release drug delivery systems and related methods” (Durect Corporation, priority 2021, dated 2025).

Where “and” joins values, the source holds several entries; their conditions need not be identical. Equal values may be shown once.

Series [1] can be described thus: Example 9: 2,6-dimethylaniline standard in different color glassware, electrochemical detection. In kind it is physicochemical. The settings on record: for Observed Concentration of Standard: prepared at 3 ng/mL. The method, then: For analysis, an aliquot of formulation was diluted 250 times with an aqueous buffer/methanol/acetonitrile diluent. After solubilization of the sample, a small aliquot is transferred into an HPLC vial for analysis using an electrochemical detector.
A series of experiments was conducted examining the effects of amber and red colored glassware on the stability of the 2,6-dimethylaniniline reference standard, using electrochemical detection, at a concentration of 3 ng/mL in an aqueous buffer/methanol solution.
In Experiment 1, the 2,6-dimethylaniline was prepared at a concentration of 3 ng/mL in a clear, colorless glass 100 mL volumetric flask. Aliquots were transferred into clear HPLC glass vials, and assayed against external standards. The 3 injections of the 2,6-dimethylaniline were consistently near 3 ng/mL.
In Experiment 2, the 2,6-dimethylaniline solution at 3 ng/mL prepared in a clear, colorless glass 100 mL volumetric flask was transferred to amber HPLC vials.
An aliquot was transferred into a clear HPLC glass vial, and assayed against external standards. The sample injection had the same 2,6-dimethylaniline concentration value as that in Experiment 1.
In Experiment 4, the 2,6-dimethylaniline solution at 3 ng/mL prepared in the red colored glass 100 mL volumetric flask coated with RAY-SORB® was transferred to an amber HPLC vial.

A short description of series [2]: Example 14: peroxide content of SAIB / benzyl alcohol versus bupivacaine N-oxide. In kind it is physicochemical. The method, then: Placebo compositions were composed of 75% w/w sucrose acetate isobutyrate (SAIB), and 25% w/w benzyl alcohol. Bupivacaine N-oxide in the sustained release bupivacaine compositions can be formed by an oxidative reaction between bupivacaine and peroxides.
The peroxide content for several lots of sucrose acetate isobutyrate were determined by potentiometric titration involving iodometric titration. The bupivacaine N-oxide levels in samples of Formulation A were determined using HPLC with UV detection.
All of the benzyl alcohol compositions had peroxide values of less than […]. The peroxide value can be converted to peroxide content, expressed as hydrogen peroxide, by multiplying PV by 17. […] The maximum contribution to peroxide content from benzyl alcohol is 85 ppm divided by 3, or 28 ppm.

The conditions of series [3]: cited from earlier work.
For series [4], the system named is human peripheral blood lymphocytes. Briefly: In vitro chromosomal aberration assay. In kind it is cell-based. An excerpt: (§1) Bupivacaine was negative in the in vitro bacterial reverse mutation assay (Ames assay), the in vitro chromosomal aberration assay (human peripheral blood lymphocytes, and the in vivo rat micronucleus assay.
The test system of series [5] is patients undergoing elective arthroscopic shoulder surgery. Put plainly: Example 1 / Study 1: pain intensity and opioid rescue after arthroscopic shoulder surgery. The note with it: 0-72 hours after surgery; ITT. In kind it is in vivo, human.
The nature of series [6]: clinical. The note with it: human, in vivo. As for the experimental part: Additionally, alpha 1 acid glycoprotein (AAG) plasma concentrations were measured in these two groups for correlation with free bupivacaine concentrations.
Using non-compartmental methods the following PK parameters were calculated from the plasma concentrations of each compound: area under the plasma concentration vs. time curve until the last measured concentration (AUCt), area under the plasma concentration vs. time curve extrapolated until infinity (AUCinf), the maximum concentration (Cmax), the time of its occurrence (tmax) and the apparent terminal elimination half-life (t1/2). […] The average […] of bupivacaine was approximately 5.2%; free bupivacaine plasma concentrations generally paralleled those of total bupivacaine. There was a large interindividual variability of Cmax of both total and free bupivacaine. […] Note: Table 1.5 presents Geometric mean, ±68th percentile for Cmax rather than absolute min,max.

The next series concerns rats. Put plainly: Rat pre- and post-natal development study. In kind it is in vivo. The settings on record: rat; MRHD 660 mg. As for the experimental part:
(§2) There are no studies conducted with Formulation A in pregnant women. […] Based on animal data, advise pregnant women of the potential risks to a fetus. [see Data]
The high dose is approximately 0.6 times the daily MRHD of 660 mg/day on a BSA basis.

The test system of another series is rat micronucleus. Put plainly: In vivo rat micronucleus assay.
From the text: as §1

Series [7] in a line: clinical. The note with it: human, in vivo. An excerpt:
Both bupivacaine and benzyl alcohol have been reported to be excreted in human milk.
Bupivacaine appears to cross the placenta by passive diffusion. The rate and degree of diffusion is governed by (1) the degree of plasma protein binding, (2) the degree of ionization, and (3) the degree of lipid solubility. Fetal/maternal ratios of local anesthetics appear to be inversely related to the degree of plasma protein binding, because only the free, unbound drug is available for placental transfer. Bupivacaine with a high protein binding capacity (95%) has a low fetal/maternal ratio (0.2 to 0.4). The extent of placental transfer is also determined by the degree of ionization and lipid solubility of the drug. Lipid soluble, non-ionized drugs such as bupivacaine readily enter the fetal blood from the maternal circulation.
The kidney is the main excretory organ for most local anesthetics and their metabolites. Urinary excretion is affected by urinary perfusion and factors affecting urinary pH. Only 6% of bupivacaine is excreted unchanged in the urine.
This is another data set of the same source.

The subject of the next series is pregnant rabbits. Put plainly: Embryo-fetal development study, subcutaneous, rabbits. In kind it is in vivo. The settings on record: pregnant rabbits, subcutaneous; MRHD 660 mg. The method, then:
as §2
Bupivacaine hydrochloride was administered subcutaneously to rats at doses of 4.4, 13.3, & 40 mg/kg and to rabbits at doses of 1.3, 5.8, & 22.2 mg/kg during the period of organogenesis (implantation to closure of the hard palate). The high doses are approximately 0.6 times the daily maximum recommended human dose (MRHD) of 660 mg/day on a mg/m^2 body surface area (BSA) basis.

The subject of series [8] is bacterial reverse mutation. Briefly: In vitro bacterial reverse mutation assay (Ames assay). The class given is cell-based.
From the text: as §1

The nature of series [9]: Example 11: metal content by ICP-MS. The class given is physicochemical. As for the experimental part: Sucrose acetate isobutyrate was tested for metal content as follows. The sample was prepared with a 0.1 g weighed portion mixed with 2 mL nitric acid and 0.5 mL hydrochloric acid for 1 hour on a block digestor set at 110° C. After cooling, 0.5 mL of 30% hydrogen peroxide was added, and the digestion resumed for 30 minutes (the material appeared dissolved). After cooling, internal standard solution was added and dilution with purified water to 20 g produced a solution for ICP-MS analysis. The results are shown below:
Formulation A was compounded using steel compounding tanks. Silicone tubing was used to transfer Formulation A. Formulation A was filled into glass vials, which were then sealed with fluorocarbon-coated stoppers.
Formulation A was tested for metal content as follows. The sample was prepared with a 0.2 g weighed portion mixed with 2 mL nitric acid, 1 mL hydrochloric acid, and 1 mL hydrofluoric acid, then digested in a closed-vessel microwave system (the material appeared dissolved). After cooling, internal standard solution was added and dilution with purified water to 50 g produced a solution for ICP-MS analysis.

The nature of series [10]: Example 16: in vitro cumulative release of bupivacaine (USP Apparatus II). In kind it is physicochemical. The settings on record: oven at 225° C. for 4 hours. An excerpt: To compare dissolution profiles, formulations having 12% w/w bupivacaine but differing ratios of sucrose acetate isobutyrate (SAIB)/solvent were made and tested as described in the below Methods and Materials. Table 16.1 is a summary of the compositions of the formulations tested.
To compare dissolution profiles, formulations having 12% w/w bupivacaine but differing ratios of sucrose acetate isobutyrate (SAIB)/solvent were made and tested as described below. Table 16.3 is a summary of the compositions of the formulations tested.
To compare dissolution profiles, a control formulation and a heat-stressed SAIB formulation were made and tested as described the below Methods and Materials. Both the control and heat-stressed SAIB formulations nominally consisted of 12% w/w bupivacaine, 22% w/w benzyl alcohol, and 66% w/w SAIB.
The bupivacaine formulations, other than the heat-stressed formulation, were prepared by dissolving appropriate amounts of bupivacaine in appropriate amounts of benzyl alcohol (BA), adding an appropriate amount of sucrose acetate isobutyrate (SAIB), and stirring not less than 45 minutes at about 35° C. For the heat-stressed SAIB formulation, the same process was followed except the SAIB was pre-heated in an oven at 225° C. for 4 hours before use. […]
Dissolution was measured using a USP Apparatus II. […]

Regarding `Cc1cccc(C)c1N` [2,6-Dimethlylaniline Standard], the “Observed Concentration of Standard” value was 3.0 ng/mL and 3.1 ng/mL in series [1] (Experiment 1, Clear volumetric flask, Clear HPLC vial); 24.5 ng/mL and 28.4 ng/mL and 34.6 ng/mL and 38.1 ng/mL in series [1] (Experiment 2, Clear volumetric flask, Amber HPLC vial); 3.0 ng/mL in series [1] (Experiment 3, Red volumetric flask, Clear HPLC vial); 14.9 ng/mL in series [1] (Experiment 4, Red volumetric flask, Amber HPLC vial).
With `OCc1ccccc1` [benzyl alcohol], in series [2] (PV multiplied by 17), the “Peroxide content, expressed as hydrogen peroxide” value is less than 8.5 ppm. The “Peroxide value (PV)” value in series [2] (all lots) was “less than 0.5”. Besides, the “Effective peroxide contribution to formation of bupivacaine N-oxide” value in series [2] (divided by 3) was less than 2.8 ppm.
As usually defined, the fraction unbound is free concentration divided by total concentration. As a reminder, the Cmax is the peak of the concentration-time curve. Consider `CCCCN1CCCCC1C(=O)Nc1c(C)cccc1C` (centres unmarked) [Bupivacaine, 1-butyl-N-(2,6-dimethylphenyl)-2-piperidinecarboxamide], for which the “Excreted unchanged in the urine” value in series [3] (human, in vivo) is recorded as 6%. Also, in series [3] (plasma), the Protein binding capacity was 95%. Also, in [4], the “Chromosomal aberration assay result” value was “negative”. Further, the “Total IV morphine equivalent dose of opioid rescue medication, median” value in series [5] came out at 8 mg. In addition, the fraction unbound in the series “clinical [6]” was roughly 0.052. Moreover, the “Dose with decreased pup survival” value in the series on rats is 0.6 times the maximum recommended human dose. Besides, the “Rat micronucleus assay result” value in the series on rat micronucleus was “negative”. This compound came in with a Cmax in “clinical [7]” of 2850 ng/mL. Moreover, in the series with pregnant rabbits, the “Dose with embryo-fetal lethality” value is 0.6 times the maximum recommended human dose. For the same compound, the “Bacterial reverse mutation assay (Ames assay) result” value in series [8] is “negative”.
Take `Cc1cccc(C)c1N` [2,6-dimethylaniline]: the “2,6-dimethylaniline concentration found” value in [1] (Experiment 1: clear flask, clear HPLC vials, 3 ng/mL prepared) was roughly 3 ng/mL. Besides, the “2,6-dimethylaniline concentration relative to Experiment 1” value in series [1] (Experiment 3: red RAY-SORB flask, clear HPLC vial) is recorded as “same”. For the same compound, the “2,6-dimethylaniline content relative to Experiments 1 and 3” value in series [1] (Experiment 4: red RAY-SORB flask, amber HPLC vial) is “approximately 5 times higher”.
sucrose acetate isobutyrate [SAIB]: in series [9] (Detection Limit 0.02), the Gold was 0.4 ppm. This compound also had a Tin in series [9] (Detection Limit 0.04) of 0.0 ppm. Further, in [9] (Detection Limit 1), the Iron came out at 2 ppm. In [2] (linear regression, FIG. 14), the “Peroxide content in SAIB corresponding to 0.8% bupivacaine N-oxide” value is 232.5 ppm and the “Peroxide in SAIB corresponding to the 1.0% specification limit for bupivacaine N-oxide” value stood at 296.4 ppm. Moreover, the “SAIB remaining after pre-heating” value in series [10] worked out at 98%.
